This note sets out measurements from patent US9376436B2, “2-(pyridin-2yl)-1, 7-diaza-spiro [4.4] nonane-6-one compound as voltage-gated sodium channels modulators” (CONVERGENCE PHARMACEUTICALS LIMITED, priority 2011, dated 2016).

Structures can show the parent of a compound that is named as a salt. Where two headings read alike, the source gives them in different places.

This assay has as its target T1, hNaV1.7 (Homo sapiens, UniProt Q15858).
T1 construct: expressed in transfected cells; host or cells: HEK293
Briefly: QPatch NaV1.7 assay (whole-cell patch clamp, QPatch16x). In kind it is cell-based. The following applies: HEK293-hNaV1.7 cells. The method in brief: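 Automated whole-cell recordings in hNaV1.7-expressing HEK293 cells, holding at either −90 mV (mostly closed channels) or the half-inactivation voltage. Compounds applied cumulatively at four concentrations for 120 s each; peak current on 20 ms depolarisation to 0 mV fitted by Hill equation to yield pIC50.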
(In general: The patch-clamp technique gives a direct electrical read-out from membranes.)

Where [1] appears, read: holding voltage V1/2 SSI (half of channels inactivated), read-out: QP Nav1.7 SSI vhalf pIC50 (converted).
Setting [2] is: holding voltage −90 mV (most channels closed), read-out: QP Nav1.7 −90 mV pIC50 (converted).

T1 sequence (Q15858 whole entry): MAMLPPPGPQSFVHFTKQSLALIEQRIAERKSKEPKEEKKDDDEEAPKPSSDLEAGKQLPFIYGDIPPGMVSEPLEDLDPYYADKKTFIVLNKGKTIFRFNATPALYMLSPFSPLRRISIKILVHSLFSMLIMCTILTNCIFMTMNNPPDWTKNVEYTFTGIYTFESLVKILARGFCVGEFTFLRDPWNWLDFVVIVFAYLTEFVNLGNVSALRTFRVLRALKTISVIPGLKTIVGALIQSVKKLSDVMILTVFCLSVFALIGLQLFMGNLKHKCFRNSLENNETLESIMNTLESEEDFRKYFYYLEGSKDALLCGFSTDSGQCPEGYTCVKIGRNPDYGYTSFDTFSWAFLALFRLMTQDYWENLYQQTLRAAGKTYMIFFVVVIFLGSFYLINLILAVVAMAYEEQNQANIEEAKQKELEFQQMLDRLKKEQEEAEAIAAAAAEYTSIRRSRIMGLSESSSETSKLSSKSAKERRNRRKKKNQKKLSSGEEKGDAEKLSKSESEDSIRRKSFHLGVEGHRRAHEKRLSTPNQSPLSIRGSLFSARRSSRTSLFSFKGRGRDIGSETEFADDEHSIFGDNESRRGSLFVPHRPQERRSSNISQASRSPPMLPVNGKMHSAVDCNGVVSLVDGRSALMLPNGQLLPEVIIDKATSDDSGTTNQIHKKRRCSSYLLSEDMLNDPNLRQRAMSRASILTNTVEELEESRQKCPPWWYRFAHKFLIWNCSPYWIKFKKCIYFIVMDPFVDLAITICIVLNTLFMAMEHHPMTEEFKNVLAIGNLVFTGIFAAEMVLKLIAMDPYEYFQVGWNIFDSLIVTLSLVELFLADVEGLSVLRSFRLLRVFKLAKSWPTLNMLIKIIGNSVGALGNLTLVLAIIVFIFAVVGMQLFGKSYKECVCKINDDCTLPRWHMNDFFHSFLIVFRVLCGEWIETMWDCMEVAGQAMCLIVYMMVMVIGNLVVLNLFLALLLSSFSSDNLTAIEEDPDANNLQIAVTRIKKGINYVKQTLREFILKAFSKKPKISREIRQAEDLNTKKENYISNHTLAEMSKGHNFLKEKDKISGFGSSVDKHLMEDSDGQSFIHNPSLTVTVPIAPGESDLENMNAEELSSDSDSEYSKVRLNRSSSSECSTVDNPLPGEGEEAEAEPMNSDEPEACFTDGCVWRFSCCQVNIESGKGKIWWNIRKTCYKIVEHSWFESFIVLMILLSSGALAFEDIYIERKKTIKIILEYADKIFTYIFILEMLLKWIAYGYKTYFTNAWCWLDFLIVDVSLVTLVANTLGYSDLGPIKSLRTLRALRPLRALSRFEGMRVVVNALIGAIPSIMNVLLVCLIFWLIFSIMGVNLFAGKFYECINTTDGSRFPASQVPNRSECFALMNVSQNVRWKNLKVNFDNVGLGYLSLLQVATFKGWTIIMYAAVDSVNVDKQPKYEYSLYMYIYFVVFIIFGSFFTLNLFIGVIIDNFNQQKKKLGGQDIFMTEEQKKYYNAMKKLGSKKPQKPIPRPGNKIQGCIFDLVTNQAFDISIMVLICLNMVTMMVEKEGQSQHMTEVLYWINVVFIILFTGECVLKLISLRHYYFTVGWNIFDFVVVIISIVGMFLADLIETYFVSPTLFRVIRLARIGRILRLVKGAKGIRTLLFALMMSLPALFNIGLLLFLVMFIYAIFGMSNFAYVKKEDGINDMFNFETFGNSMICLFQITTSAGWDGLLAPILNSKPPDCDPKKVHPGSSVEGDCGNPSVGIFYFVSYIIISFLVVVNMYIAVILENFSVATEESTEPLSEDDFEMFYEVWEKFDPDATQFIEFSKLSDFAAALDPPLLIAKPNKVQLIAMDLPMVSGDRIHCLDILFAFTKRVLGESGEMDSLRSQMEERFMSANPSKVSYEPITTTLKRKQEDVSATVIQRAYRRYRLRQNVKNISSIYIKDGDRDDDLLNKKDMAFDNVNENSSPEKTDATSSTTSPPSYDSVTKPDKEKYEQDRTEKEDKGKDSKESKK

Regarding `CN1CC[C@@]2(CC[C@H](c3cc(-c4cc(-c5cnn(C)c5)ccc4F)ccn3)N2)C1=O` [Example 191, (2R,5S)-2-[4-[2-Fluoro-5-(1-methylpyrazol-4-yl)phenyl]-2-pyridyl]-7-methyl-1,7-diazaspiro[4.4]nonan-6-one hydrochloride], the IC50 was 25.1 µM under setting [1] and 398 µM under setting [2].
With `CCOc1ccc(F)c(-c2cc(C(C)C)nc([C@@H]3CC[C@@]4(CCN(C)C4=O)N3)c2)c1` [Example 236, (2S,5S)-2-[4-(5-Ethoxy-2-fluoro-phenyl)-6-isopropyl-2-pyridyl]-7-methyl-1,7-diazaspiro[4.4]nonan-6-one hydrochloride], the IC50 is, setting by setting: under setting [1], 0.631 µM; under setting [2], 6.31 µM.
Consider `CN1CC[C@]2(CC[C@H](c3cc(-c4ccc(C(F)(F)F)cc4)c(OC(C)(C)C)cn3)N2)C1=O` [Example 65, (2R,5R)-2-[5-tert-Butoxy-4-[4-(trifluoromethyl)-phenyl]-2-pyridyl]-7-methyl-1,7-diazaspiro[4.4]nonan-6-one hydrochloride], for which the IC50 was 1.58 µM under setting [1] and 31.6 µM under setting [2].
`Cc1cc(-c2cc(C(F)(F)F)ccc2C(N)=O)cc([C@@H]2CC[C@@]3(CCN(C)C3=O)N2)n1` [Example 25, 2-[2-Methyl-6-[(2S,5S)-7-methyl-6-oxo-1,7-diazaspiro[4.4]nonan-2-yl]-4-pyridyl]-4-(trifluoromethyl)benzamide hydrochloride]: the IC50 under setting [1] is 1580 µM.
As for `CC(C)c1ccc(F)c(-c2ccnc([C@H]3CC[C@@]4(CCN(C)C4=O)N3)c2)c1` [Example 159, (2R,5S)-2-[4-(2-Fluoro-5-isopropyl-phenyl)-2-pyridyl]-7-methyl-1,7-diazaspiro[4.4]nonan-6-one hydrochloride], the IC50 is, setting by setting: under setting [1], 7.94 µM; under setting [2], 31.6 µM.
On to `COc1cnc([C@H]2CC[C@]3(CCN(C)C3=O)N2)cc1-c1ccc(C(F)(F)F)cc1` [Example 152, (2R,5R)-2-[5-Methoxy-4-[4-(trifluoromethyl)phenyl]-2-pyridyl]-7-methyl-1,7-diazaspiro[4.4]nonan-6-one hydrochloride], for which the IC50 runs as follows: under setting [1], 15.8 µM; under setting [2], 200 µM.
For `COc1cc(C(F)(F)F)ccc1-c1cc([C@@H]2CC[C@@]3(CCN(C)C3=O)N2)ncc1C` [Example 132, (2S,5S)-2-[4-[2-Methoxy-4-(trifluoromethyl)phenyl]-5-methyl-2-pyridyl]-7-methyl-1,7-diazaspiro[4.4]nonan-6-one hydrochloride], in that order: 39.8 µM and 251 µM.
On to `CCOc1ccc(F)c(-c2cc(C)nc([C@H]3CC[C@]4(CCNC4=O)N3)c2)c1` [Example 103, (2R,5R)-2-[4-(5-Ethoxy-2-fluoro-phenyl)-6-methyl-2-pyridyl]-1,7-diazaspiro[4.4]nonan-6-one hydrochloride], for which the IC50 is 0.126 µM under setting [1] and 2.51 µM under setting [2].
In the case of `CCn1ncc2cc(F)c(-c3ccnc([C@H]4CC[C@@]5(CCN(C)C5=O)N4)c3)cc21` [Example 258, (2R,5S)-2-[4-(1-Ethyl-5-fluoro-indazol-6-yl)-2-pyridyl]-7-methyl-1,7-diazaspiro[4.4]nonan-6-one hydrochloride], the IC50 is, setting by setting: under setting [1], 31.6 µM; under setting [2], 39800 µM.
For the molecule `CCOc1ccc(F)c(-c2ccnc([C@H]3CC[C@@]4(CC[C@H](C)NC4=O)N3)c2)c1` [Example 246, hydrochloride], the IC50 is, setting by setting: under setting [1], 1 µM; under setting [2], 15.8 µM.
`CN1CC[C@@]2(CC[C@H](c3cc(-c4cc(-n5cccn5)ccc4F)ccn3)N2)C1=O` [Example 184, (2R,5S)-2-[4-(2-Fluoro-5-pyrazol-1-yl-phenyl)-2-pyridyl]-7-methyl-1,7-diazaspiro[4.4]nonan-6-one hydrochloride]: the IC50 under setting [1] is 10 µM and the IC50 under setting [2] was 126 µM.
Take `CCOc1ccc(F)c(-c2cc([C@H]3CC[C@@]4(CCN(C)C4=O)N3)ncc2CC)c1` [Example 241, (2R,5S)-2-[4-(5-Ethoxy-2-fluoro-phenyl)-5-ethyl-2-pyridyl]-7-methyl-1,7-diazaspiro[4.4]nonan-6-one hydrochloride]: the IC50 is, setting by setting: under setting [1], 15.8 µM; under setting [2], 100 µM.
As for `COc1ccc(F)c(-c2cc(C)nc([C@H]3CC[C@@]4(CCN(C)C4=O)N3)c2)c1` [Example 195, (2R,5S)-2-[4-(2-Fluoro-5-methoxy-phenyl)-6-methyl-2-pyridyl]-7-methyl-1,7-diazaspiro[4.4]nonan-6-one hydrochloride], the IC50 under setting [1] was 5.01 µM and the IC50 under setting [2] is 100 µM.
Consider `CN1CC[C@@]2(CC[C@H](c3cc(-c4cccc5c4OC(F)(F)O5)ccn3)N2)C1=O` [Example 81, (2R,5S)-2-[4-(2,2-Difluoro-1,3-benzodioxol-4-yl)-2-pyridyl]-7-methyl-1,7-diazaspiro[4.4]nonan-6-one hydrochloride], for which the IC50 reads like this: under setting [1], 3.16 µM; under setting [2], 200 µM.
In the case of `CCOc1ccc(F)c(-c2cc(C)nc([C@@H]3CC[C@]4(CCNC4=O)N3)c2)c1` [Example 102, (2S,5R)-2-[4-(5-Ethoxy-2-fluoro-phenyl)-6-methyl-2-pyridyl]-1,7-diazaspiro[4.4]nonan-6-one hydrochloride], the IC50 is, setting by setting: under setting [1], 2 µM; under setting [2], 25.1 µM.
For `COc1cc(C(F)(F)F)ccc1-c1cc(C)nc([C@@H]2CC[C@@]3(CCN(C)C3=O)N2)c1` [Example 122, (2S,5S)-2-[4-[2-Methoxy-4-(trifluoromethyl)phenyl]-6-methyl-2-pyridyl]-7-methyl-1,7-diazaspiro[4.4]nonan-6-one hydrochloride], the IC50 by setting is: under setting [1], 3.16 µM; under setting [2], 7.94 µM.
Taken in the same sequence, the figures for `Cc1cc(-c2ccc(C(F)(F)F)cc2)cc([C@H]2CC[C@]3(CCN(C)C3=O)N2)n1` [Example 31, (2R,5R)-7-Methyl-2-[6-methyl-4-[4-(trifluoromethyl)phenyl]-2-pyridyl]-1,7-diazaspiro[4.4]nonan-6-one hydrochloride] were 20 µM and 79.4 µM.
Take `CCOc1ccc(F)c(-c2cc(C)nc(C3CCC4(CCN(C)C4=O)N3)c2C)c1` (mixture of isomers) [Example 256, 2-[4-(5-Ethoxy-2-fluoro-phenyl)-3,6-dimethyl-2-pyridyl]-7-methyl-1,7-diazaspiro[4.4]nonan-6-one hydrochloride]: the IC50 reads like this: under setting [1], 2.51 µM; under setting [2], 20 µM.
For the molecule `O=C1NCCC[C@@]12CC[C@@H](c1cc(-c3ccc(C(F)(F)F)cc3)ccn1)N2` [Example 48, (2S,5R)-2-[4-(4-Trifluoromethyl-phenyl)-pyridin-2-yl]-1,7-diaza-spiro[4.5]decan-6-one hydrochloride], the IC50 reads like this: under setting [1], 2 µM; under setting [2], 25.1 µM.
Take `CCOc1cc(F)ccc1-c1ccnc([C@H]2CC[C@@]3(CCN(C)C3=O)N2)c1` [Example 169, (2R,5S)-2-[4-(2-Ethoxy-4-fluoro-phenyl)-2-pyridyl]-7-methyl-1,7-diazaspiro[4.4]nonan-6-one hydrochloride]: the IC50 runs as follows: under setting [1], 6.31 µM; under setting [2], 126 µM.
Taken in the same sequence, the figures for `O=C1NCCC[C@]12CC[C@H](c1cc(-c3ccc(C(F)(F)F)cc3)ccn1)N2` [Example 50, (2R,5S)-2-[4-(4-Trifluoromethyl-phenyl)-pyridin-2-yl]-1,7-diaza-spiro[4.5]decan-6-one hydrochloride] were 0.251 µM and 2.51 µM.
Turning to `O=C1NCC[C@@]12CC[C@H](c1cc(-c3ccc(C(F)(F)F)cc3)ccn1)N2` [Example 37, (2R,5S)-2-[4-[4-(Trifluoromethyl)phenyl]-2-pyridyl]-1,7-diazaspiro[4.4]nonan-6-one hydrochloride], the IC50 is, setting by setting: under setting [1], 0.794 µM; under setting [2], 25.1 µM.
Turning to `CCOc1ccc(F)c(-c2cc([C@H]3CC[C@]4(CCN(C)C4=O)N3)nc(C)c2C)c1` [Example 141, (2R,5R)-2-[4-(5-Ethoxy-2-fluoro-phenyl)-5,6-dimethyl-2-pyridyl]-7-methyl-1,7-diazaspiro[4.4]nonan-6-one hydrochloride], the IC50 under setting [1] is 6.31 µM and the IC50 under setting [2] is 63.1 µM.
Regarding `Cc1cc(-c2ccc(C(F)(F)F)cc2)cc([C@@H]2CC[C@]3(CCNC3=O)N2)n1` [Example 95, (2S,5R)-2-[6-Methyl-4-[4-(trifluoromethyl)phenyl]-2-pyridyl]-1,7-diazaspiro[4.4]nonan-6-one hydrochloride], the IC50 is, setting by setting: under setting [1], 12.6 µM; under setting [2], 100 µM.
Consider `CCOc1cccc(-c2cc(C)nc([C@H]3CC[C@@]4(CCN(C)C4=O)N3)c2)c1F` [Example 199, (2R,5S)-2-[4-(3-Ethoxy-2-fluoro-phenyl)-6-methyl-2-pyridyl]-7-methyl-1,7-diazaspiro[4.4]nonan-6-one hydrochloride], for which the IC50 runs as follows: under setting [1], 25.1 µM; under setting [2], 158 µM.
Taken in the same sequence, the figures for `Cc1cc(-c2cc(C(F)(F)F)ccc2C#N)cc([C@H]2CC[C@@]3(CCN(C)C3=O)N2)n1` [Example 23, 2-[2-Methyl-6-[(2R,5S)-7-methyl-6-oxo-1,7-diazaspiro[4.4]nonan-2-yl]-4-pyridyl]-4-(trifluoromethyl)benzonitrile hydrochloride] were 79.4 µM and 631 µM.
Taken in the same sequence, the figures for `COc1cc(C(F)(F)F)ccc1-c1cc([C@H]2CC[C@@]3(CCN(C)C3=O)N2)ncc1C` [Example 131, (2R,5S)-2-[4-[2-Methoxy-4-(trifluoromethyl)phenyl]-5-methyl-2-pyridyl]-7-methyl-1,7-diazaspiro[4.4]nonan-6-one hydrochloride] were 2 µM and 100 µM.
As to `CCOc1ccc(F)c(-c2cc(C)nc([C@@H]3CC[C@]4(CCN(C)C4=O)N3C)c2)c1` [Example 231, (2S,5R)-2-[4-(5-Ethoxy-2-fluoro-phenyl)-6-methyl-2-pyridyl]-1,7-dimethyl-1,7-diazaspiro-[4.4]nonan-6-one hydrochloride], the IC50 under setting [1] is 1 µM and the IC50 under setting [2] is 12.6 µM.
